Molecules are shown by their SMILES. Activity calls are given as the source filed them. The calls are words filed in the database; no cut-off is given here.

The test system of assay [1] is B16. Put plainly: Induction of melanogenesis in mouse B16 cells assessed as increase in intracellular melanin content at 50 uM incubated for 49 hrs by NaOH lysis based microplate reader assay. Type of assay: functional.
The subject of assay [2] is B16. Put plainly: Induction of melanogenesis in mouse B16 cells assessed as increase in intracellular tyrosinase activity at 50 uM incubated for 48 hrs by L-DOPA oxidation method. Type of assay: functional, cell-based.
Assay [3] deals with B16. Nature of the assay: Induction of melanogenesis in mouse B16 cells assessed as increase in intracellular melanin content at 1 to 50 uM incubated for 49 hrs by NaOH lysis based microplate reader assay. Type of assay: functional, cell-based. The note with it: dose 1-50 µM, DDE = dose-dependent effect.
The test system of assay [4] is B16. Nature of the assay: Induction of melanogenesis in mouse B16 cells assessed as upregulation of MITF protein expression at 50 uM incubated for 48 hrs by Western blot analysis. Type of assay: functional, cell-based.
Assay [5] deals with B16. Put plainly: Induction of melanogenesis in mouse B16 cells assessed as upregulation of TYR protein expression at 50 uM incubated for 48 hrs by Western blot analysis. Type of assay: functional, cell-based. In general terms: A western blot detects proteins with antibodies after separation by electrophoresis.
For assay [6], the system named is B16. Nature of the assay: Induction of melanogenesis in mouse B16 cells assessed as upregulation of TRP-1 protein expression at 50 uM incubated for 48 hrs by Western blot analysis. Type of assay: functional, cell-based.
In assay [7] the test system is B16. Put plainly: Induction of melanogenesis in mouse B16 cells assessed as upregulation of TRP-2 protein expression at 50 uM incubated for 48 hrs by Western blot analysis. Type of assay: functional, cell-based.
Assay [8] concerns B16. Put plainly: Induction of melanogenesis in mouse B16 cells assessed as upregulation of MITF mRNA expression at 50 uM by RT-PCR analysis. Type of assay: functional, cell-based.
In assay [9] the test system is B16. Put plainly: Induction of melanogenesis in mouse B16 cells assessed as upregulation of TYR mRNA expression at 50 uM by RT-PCR analysis. Type of assay: functional, cell-based.
Assay [10] deals with B16. Nature of the assay: Induction of melanogenesis in mouse B16 cells assessed as upregulation of TRP-1 mRNA expression at 50 uM by RT-PCR analysis. Type of assay: functional, cell-based.
The test system of assay [11] is B16. Put plainly: Induction of melanogenesis in mouse B16 cells assessed as upregulation of TRP-2 mRNA expression at 50 uM by RT-PCR analysis. Type of assay: functional, cell-based.
Assay [12] deals with HaCaT. Nature of the assay: Inhibition of JAK/STAT signaling pathway in human HaCaT cells assessed as downregulation of IFN-gamma induced CXCL10 protein level at 1 to 50 uM incubated for 24 hrs by ELISA. The settings on record: dose 1-50 µM, DDE = dose-dependent effect. Type of assay: cell-based.
For assay [13], the system named is HaCaT. Put plainly: Inhibition of JAK/STAT signaling pathway in human HaCaT cells assessed as downregulation of IFN-gamma induced CXCL10 mRNA expression at 1 to 50 uM by RT-PCR analysis. Type of assay: cell-based. The note with it: dose 1-50 µM, DDE = dose-dependent effect.
Assay [14] concerns HaCaT. Put plainly: Inhibition of JAK/STAT signaling pathway in human HaCaT cells assessed as downregulation of IFN-gamma induced JAK1 protein expression at 1 to 50 uM incubated for 48 hrs by Western blot analysis. Type of assay: cell-based. The settings on record: dose 1-50 µM.
Assay [15] concerns HaCaT. Nature of the assay: Inhibition of JAK/STAT signaling pathway in human HaCaT cells assessed as downregulation of IFN-gamma induced JAK2 protein expression at 50 uM incubated for 48 hrs by Western blot analysis. Type of assay: cell-based.
Assay [16] has as its system HaCaT. Nature of the assay: Inhibition of JAK/STAT signaling pathway in human HaCaT cells assessed as downregulation of IFN-gamma induced p-STAT protein expression at 10 to 50 uM incubated for 48 hrs by Western blot analysis. Type of assay: cell-based. The settings on record: dose 10-50 µM.

Take `C=C1CC[C@@H](O)[C@]2(C)CC[C@@H]([C@@H](C)C(=O)OC)[C@H](O)[C@@]12O`: in [1], the outcome was Active.
As to `C=C1CC[C@@H](O)[C@]2(C)CC[C@@H]([C@@H](C)C(=O)OC)[C@H](O)[C@]12O`, the Activity in assay [1] was 153%; in assay [3], “Dde”. For the same compound, the result in assay [2], in assay [4], in [5], in [6], in assay [7] and in assay [8] was Active. Further, the outcome in [9], in assay [10] and in [11] was Active. Further, the inhibition entry in [12] and in assay [13] was “Dde” each time. The inhibition result in assay [14], in assay [15] and in assay [16] was “Active” in each case.
Turning to `C=C1CC[C@H](O)[C@]2(C)CC[C@H]3[C@@H](C)C(=O)O[C@@H]3[C@@]12O`, the result in assay [1] was Active.
Same read-out and setting: for `COc1c2occc2cc2ccc(=O)oc12` [METHOXSALEN] the value was 138%; for `C=C1CC[C@@H](O)[C@]2(C)C[C@H](OC(C)=O)[C@H]3[C@H](C)C(=O)O[C@@H]3[C@@]12O`, “Active”.

(Values after ChEMBL document CHEMBL5126660, “Sesquiterpenoids from Seriphidium transiliense and Their Melanogenic Activity” (2022).)
